Results as given in patent US10077238B2, “Small molecule LFA-1 inhibitors” (ALLOCYTE PHARMACEUTICALS AG, priority 2014, dated 2018).
Several values for one entry are separate records, joined by “and”; a condition that tells them apart may be missing. Equal values may be shown once.

molecular target: T1, LFA-1 (Homo sapiens, UniProt P20701); test: V well cell adhesion assay, LFA-1-mediated Jurkat cell binding to ICAM-1 (LFA-1 adhesion); type: cell-based; details: Jurkat cells on ICAM-1/Fc; mean ±SD of ≥3 independent experiments in triplicates or single experiments in triplicates
T1 construct: endogenous in cells; host or cells: Jurkat cells
T1 sequence (P20701 26-1170): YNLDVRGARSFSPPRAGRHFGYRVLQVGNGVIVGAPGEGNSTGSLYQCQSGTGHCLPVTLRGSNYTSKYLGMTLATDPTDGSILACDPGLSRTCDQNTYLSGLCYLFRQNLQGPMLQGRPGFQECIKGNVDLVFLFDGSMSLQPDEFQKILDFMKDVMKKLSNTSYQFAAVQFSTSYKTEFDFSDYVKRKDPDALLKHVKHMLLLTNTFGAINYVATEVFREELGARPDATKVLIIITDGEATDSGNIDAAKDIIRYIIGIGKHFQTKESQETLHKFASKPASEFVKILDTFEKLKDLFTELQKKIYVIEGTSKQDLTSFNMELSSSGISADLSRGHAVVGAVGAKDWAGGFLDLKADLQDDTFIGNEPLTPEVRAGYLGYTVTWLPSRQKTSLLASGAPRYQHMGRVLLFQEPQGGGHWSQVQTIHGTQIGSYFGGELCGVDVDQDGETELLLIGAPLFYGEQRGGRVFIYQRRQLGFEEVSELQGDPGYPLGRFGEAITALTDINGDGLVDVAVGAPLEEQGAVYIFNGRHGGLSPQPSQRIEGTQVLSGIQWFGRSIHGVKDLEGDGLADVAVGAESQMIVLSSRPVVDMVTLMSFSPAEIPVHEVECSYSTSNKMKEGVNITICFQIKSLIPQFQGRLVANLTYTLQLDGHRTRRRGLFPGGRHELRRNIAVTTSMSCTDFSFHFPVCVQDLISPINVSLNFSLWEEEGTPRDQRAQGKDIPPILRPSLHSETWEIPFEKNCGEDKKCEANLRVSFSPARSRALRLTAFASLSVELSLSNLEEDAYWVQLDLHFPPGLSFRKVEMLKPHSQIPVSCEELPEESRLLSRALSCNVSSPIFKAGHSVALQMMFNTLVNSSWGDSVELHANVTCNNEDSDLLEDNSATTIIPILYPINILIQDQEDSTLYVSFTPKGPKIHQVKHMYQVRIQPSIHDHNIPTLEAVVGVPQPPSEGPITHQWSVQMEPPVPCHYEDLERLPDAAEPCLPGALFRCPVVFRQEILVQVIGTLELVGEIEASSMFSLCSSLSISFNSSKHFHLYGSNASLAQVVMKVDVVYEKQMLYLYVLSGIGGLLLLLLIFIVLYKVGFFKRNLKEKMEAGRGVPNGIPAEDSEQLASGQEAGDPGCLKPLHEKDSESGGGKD
T1 sequence (P05107 23-769 partner): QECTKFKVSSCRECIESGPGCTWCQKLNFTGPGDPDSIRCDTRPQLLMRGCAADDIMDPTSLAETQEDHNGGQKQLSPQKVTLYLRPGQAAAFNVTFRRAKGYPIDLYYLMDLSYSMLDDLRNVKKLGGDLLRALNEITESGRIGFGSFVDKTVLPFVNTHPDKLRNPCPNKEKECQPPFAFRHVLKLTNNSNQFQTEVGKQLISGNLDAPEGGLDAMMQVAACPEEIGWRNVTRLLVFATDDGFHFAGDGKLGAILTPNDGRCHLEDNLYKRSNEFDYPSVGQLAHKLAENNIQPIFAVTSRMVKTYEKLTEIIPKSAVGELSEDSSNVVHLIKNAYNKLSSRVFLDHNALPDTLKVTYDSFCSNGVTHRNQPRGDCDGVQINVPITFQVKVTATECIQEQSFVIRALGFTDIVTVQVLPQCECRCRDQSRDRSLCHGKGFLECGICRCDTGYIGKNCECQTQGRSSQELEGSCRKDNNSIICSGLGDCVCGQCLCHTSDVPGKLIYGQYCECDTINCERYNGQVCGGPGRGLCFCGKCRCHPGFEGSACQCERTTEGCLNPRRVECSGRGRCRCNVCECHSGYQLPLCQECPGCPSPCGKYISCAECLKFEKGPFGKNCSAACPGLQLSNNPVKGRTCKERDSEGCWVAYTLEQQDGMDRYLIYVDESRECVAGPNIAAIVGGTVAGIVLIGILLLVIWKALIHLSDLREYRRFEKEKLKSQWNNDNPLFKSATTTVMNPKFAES
Experimental: Cell-Based Assay to Determine the Effect of the Compounds on LFA-1-Mediated Cell Adhesion (LFA-1 Adhesion)
Purpose of the Assay: The V well cell adhesion assay measures the ability of the compounds to interfere with LFA-1-mediated binding to ICAM-1 at cellular level. The assay has been successfully used in the past to identify and characterize small molecules LFA-1 inhibitors.
Experimental Protocol: The adhesion assay was performed in Vbottom 96-well plates as described previously [Weitz-Schmidt 2012]. Briefly, the plates were coated with anti-human IgG mAb diluted in coating buffer (20 mM Tris containing 150 mM NaCl, pH 8) (1 μg/mL) and incubated overnight at 4° C. The plates were flicked out and blocked with blocking buffer (50 mM Tris base, 150 mM NaCl, 1.5% BSA (w/v), pH 7.2) at 37° C. for 90 min. Then human recombinant ICAM-1/Fc (R&D Systems) diluted in coating buffer (0.3 μg/mL) was added to each well. The plates were incubated at 37° C. for 90 min and washed with binding buffer (50 mM Tris base, 150 mM NaCl, 1.5% BSA (w/v), 2 mM MgCl2, 2 mM MnCl2, 5 mM D-glucose monohydrate, pH 7.2-7.4) to remove unbound ligand.
Jurkat cells were cultured under standard conditions as recommended by the American Type Culture collection (ATCC). The cells were fluorescently labelled with BCECF-AM in PBS (1 μg/mL) at 37° C. for 20 min in the dark, centrifuged and washed with PBS. The test compounds were dissolved in DMSO at 10 mM and serially pre-diluted in DMSO (100%) to avoid precipitation, before performing final dilution steps in binding buffer.
The labelled Jurkat cells were re-suspended in binding buffer and test compounds or solvent control were added. The DMSO concentration was kept constant in all samples (1% DMSO as final assay concentration). After 40 min at 37° C. (LFA-1 activation and compound pre-incubation step) the cell suspension (3×10^5 cells/mL in binding buffer) was pipetted up and down and transferred to the ligand-coated microtiter V well plates (30 000 cells/well). The plates were centrifuged for 4 min at room temperature (rt) at 1000 rpm (Centrifuge Eppendorf 5810 R), setting the brake off Non-adherent cells that accumulated in the center of the Vbottom were quantified using a fluorescence reader with the filter sets allowing excitation at 485 nm and quantification of emission at 535 nm. The determination of the half maximal inhibitory concentration (IC50) of the compounds was calculated using the software GraphPad Prism 6.

| Structure (SMILES) | IC50 |
| --- | --- |
| C[C@]12C(=O)N(c3cc(Cl)cc(Cl)c3)C(=O)[C@H]1C2(c1ccc(OC(F)(F)F)cc1)c1ccc(OC(F)(F)F)cc1 (racemic) [4q (racemate), rac-(1S,5S)-3-(3,5-Dichlorophenyl)-1-methyl-6,6-bis[4-(trifluoromethoxy)phenyl]-3-azabicyclo[3.1.0]hexane-2,4-dione] | 101 nM |
| C[C@]12C(=O)N(c3cc(Cl)cc(Cl)c3)C(=O)[C@H]1[C@@]2(C(=O)N1CCOCC1)c1ccc(Br)cc1 (racemic) [4′k (racemate), rac-(1S,5R,6R)-6-(4-Bromophenyl)-3-(3,5-dichlorophenyl)-1-methyl-6-[(morpholin-4-yl)carbonyl]-3-azabicyclo[3.1.0]hexane-2,4-dione] | 3470 nM |
| C[C@]12C(=O)N(c3cc(Cl)cc(Cl)c3)C(=O)[C@H]1[C@@]2(C(=O)N1CCOCC1)c1ccc(C(F)(F)F)cc1 (racemic) [4′l (racemate), rac-(1S,5R,6R)-3-(3,5-Dichlorophenyl)-1-methyl-6-[(morpholin-4-yl)carbonyl]-6-[4-(trifluoromethyl)phenyl]-3-azabicyclo[3.1.0]hexane-2,4-dione] | > 3000 nM |
| C[C@]12C(=O)N(c3cc(Cl)cc(Cl)c3)C(=O)[C@H]1[C@@]2(C(=O)N1CCOCC1)c1ccc(OC(F)(F)F)cc1 (racemic) [4′m (racemate), rac-(1S,5R,6R)-3-(3,5-Dichlorophenyl)-1-methyl-6-[(morpholin-4-yl)carbonyl]-6-[4-(trifluoromethoxy)phenyl]-3-azabicyclo[3.1.0]hexane-2,4-dione] | 405 nM |
| C[C@]12C(=O)N(c3cc(Cl)cc(Cl)c3)C(=O)[C@H]1[C@@]2(C(=O)N1CCOCC1)c1ccc(C#N)cc1 (racemic) [4′n (racemate), rac-4-[(1S,5R,6R)-3-(3,5-Dichlorophenyl)-1-methyl-6-[(morpholin-4-yl)carbonyl]-2,4-dioxo-3-azabicyclo[3.1.0]hexan-6-yl]benzonitrile] | 636 nM |
| CC12C(=O)N(c3cc(Cl)cc(Cl)c3)C(=O)C1C2(c1ccccc1)c1ccncc1 (single isomer, unassigned) [4 o or 4′o diastereomer I (racemate), rac-(1 S, 5S, 6S)- and rac-(1 S, 5S, 6R)-3-(3,5-Dichlorophenyl)-1-methyl-6-phenyl-6-(pyridin-4-yl)-3-azabicyclo[3.1.0]hexane-2,4-dione] | > 3000 nM |
| CC12C(=O)N(c3cc(Cl)cc(Cl)c3)C(=O)C1C2(c1ccccc1)c1ccncc1 (single isomer, unassigned) [4 o or 4′o diastereomer II (racemate), rac-(1 S, 5S, 6S)- and rac-(1 S, 5S, 6R)-3-(3,5-Dichlorophenyl)-1-methyl-6-phenyl-6-(pyridin-4-yl)-3-azabicyclo[3.1.0]hexane-2,4-dione] | 458 nM |
| CC12C(=O)N(c3cc(Cl)cc(Cl)c3)C(=O)C1C2(c1ccccc1)c1ccccc1 (single isomer, unassigned) [4b enantiomer B] | > 10000 nM |
| CC12C(=O)N(c3cc(Cl)cc(Cl)c3)C(=O)C1C2(c1ccc(C#N)cc1)c1ccc(OC(F)(F)F)cc1 (single isomer, unassigned) [4i/4′i diastereomer I (racemate), rac-4-[(1 S, 5S, 6S)- and rac-4-(1 S, 5S, 6R)-3-(3,5-Dichlorophenyl)-1-methyl-2,4-dioxo-6-[4-(trifluoro-methoxy)-phenyl]-3-azabicyclo[3.1.0]hexan-6-yl]benzonitrile] | 562 nM and 530 nM |
| N#Cc1ccc(C2(c3ccc(OC(F)(F)F)cc3)C3C(=O)N(c4cc(Cl)cc(Cl)c4)C(=O)C32)cc1 (single isomer, unassigned) [4r or 4′r diastereomer II] | 132 nM |
| N#Cc1ccc(C2(c3ccc(OC(F)(F)F)cc3)C3C(=O)N(c4cc(Cl)cc(Cl)c4)C(=O)C32)cc1 (single isomer, unassigned) [4r or 4′r diastereomer I] | 963 nM |
| COc1ccc(C2(c3ccc(Cl)cc3)C3C(=O)N(c4cc(Cl)cc(Cl)c4)C(=O)C32C)cc1 (single isomer, unassigned) [4s or 4′s diastereomer I (racemate), rac-(1 S, 5S, 6R)- and rac-(1 S, 5S, 6S)-6-(4-Chlorophenyl)-3-(3,5-dichlorophenyl)-6-(4-methoxyphenyl)-1-methyl-3-azabicyclo[3.1.0]hexane-2,4-dione] | 1830 nM |
| COc1ccc(C2(c3ccc(Cl)cc3)C3C(=O)N(c4cc(Cl)cc(Cl)c4)C(=O)C32C)cc1 (single isomer, unassigned) [4s or 4′s diastereomer II (racemate), rac-(1 S, 5S, 6R)- and rac-(1 S, 5S, 6S)-6-(4-Chlorophenyl)-3-(3,5-dichlorophenyl)-6-(4-methoxyphenyl)-1-methyl-3-azabicyclo[3.1.0]hexane-2,4-dione] | 153 nM |
| CC12C(=O)N(c3cc(Cl)cc(Cl)c3)C(=O)C1C2(c1ccccc1)c1ccco1 (single isomer, unassigned) [4t or 4′t Diastereomer I (racemate), rac-(1 S, 5S, 6R)- and rac-(1 S, 5S, 6S)-3-(3,5-Dichlorophenyl)-6-(furan-2-yl)-1-methyl-6-phenyl-3-azabicyclo[3.1.0]hexane-2,4-dione] | 870 nM |
| N#Cc1ccc(C2(c3ccncc3)C3C(=O)N(c4cc(Cl)cc(Cl)c4)C(=O)C32)cc1 (single isomer, unassigned) [4y or 4′y diastereomer I, rel-4-[(1 S, 5R, 6s)- and rel-4-[(1 S, 5R, 6r)-3-(3,5-Dichlorophenyl)-2,4-dioxo-6-(pyridin-4-yl)-3-azabicyclo[3.1.0]hexan-6-yl]benzonitrile] | > 1000 nM |
| N#Cc1ccc(C2(c3ccncc3)C3C(=O)N(c4cc(Cl)cc(Cl)c4)C(=O)C32)cc1 (single isomer, unassigned) [4y or 4′y diastereomer II, rel-4-[(1 S, 5R, 6s)- and rel-4-[(1 S, 5R, 6r)-3-(3,5-Dichlorophenyl)-2,4-dioxo-6-(pyridin-4-yl)-3-azabicyclo[3.1.0]hexan-6-yl]benzonitrile] | ≥ 1000 nM |
| CC12C(=O)N(c3cc(Cl)cc(Cl)c3)C(=O)C1C2(c1ccncc1)c1ccc(C#N)cc1 (single isomer, unassigned) [4z or 4′z diastereomer I (racemate)] | > 1000 nM |
| CC12C(=O)N(c3cc(Cl)cc(Cl)c3)C(=O)C1C2(c1ccncc1)c1ccc(C#N)cc1 (single isomer, unassigned) [4z or 4′z diastereomer II (racemate)] | 71 nM |
| O=C1[C@@H]2[C@H](C(=O)N1c1cc(Cl)cc(Cl)c1)[C@@H]2c1ccccc1 [4′c, rel-(1R,5S,6r)-3-(3,5-Dichlorophenyl)-6-phenyl-3-azabicyclo[3.1.0]hexane-2,4-dione] | 1590 nM |
| O=C1[C@@H]2[C@H](C(=O)N1c1cc(Cl)cc(Cl)c1)[C@@H]2c1ccc(Br)cc1 [4′e, rel-(1R,5S,6r)-6-(4-Bromophenyl)-3-(3,5-dichloro-phenyl)-3-azabicyclo[3.1.0]hexane-2,4-dione] | 3330 nM |
| O=C1[C@@H]2[C@H](C(=O)N1c1cc(Cl)cc(Cl)c1)C2(c1ccccc1)c1ccccc1 [Compound 4a, 3-(3,5-Dichlorophenyl)-6,6-diphenyl-3-azabicyclo[3.1.0]hexane-2,4-dione] | 8480 nM |
